Reference: BigSolDB 2.1

c1ccc(-n2c3ccccc3c3ccccc32)cc1
solubility (mole fraction)
Conditions | 278.15 K | 283.15 K | 288.15 K | 293.15 K | 298.15 K | 303.15 K | 308.15 K | 313.15 K
in 1,4-dioxane | – | – | 0.124 | 0.213 | 0.292 | 0.417 | 0.514 | 0.717
in THF | 0.249 | 0.274 | 0.309 | 0.346 | 0.386 | 0.439 | 0.497 | 0.562
in acetonitrile | 0.00383 | 0.00413 | 0.00487 | 0.00582 | 0.00624 | 0.00735 | 0.00826 | 0.0102
in chloroform | 0.237 | 0.262 | 0.322 | 0.399 | 0.461 | 0.555 | 0.651 | 0.753
in cyclohexane | – | 0.034 | 0.0421 | 0.0523 | 0.0691 | 0.0815 | 0.101 | 0.132
in dichloromethane | 0.223 | 0.246 | 0.311 | 0.385 | 0.453 | 0.548 | 0.644 | –
in ethanol | 0.00099 | 0.00167 | 0.00218 | 0.00271 | 0.00334 | 0.0042 | 0.00574 | 0.007
in isopropanol | 0.001 | 0.00131 | 0.00215 | 0.00244 | 0.00303 | 0.004 | 0.00458 | 0.00591
in methanol | 6.96e-05 | 0.00011 | 0.000178 | 0.000208 | 0.000251 | 0.000296 | 0.000427 | 0.00055
in n-butanol | 0.00207 | 0.00219 | 0.00266 | 0.00333 | 0.00403 | 0.00468 | 0.00691 | 0.00919
in n-hexane | 0.0355 | 0.0378 | 0.0431 | 0.0494 | 0.0552 | 0.0624 | 0.0703 | 0.078
in n-propanol | 0.00298 | 0.00323 | 0.00412 | 0.00517 | 0.0061 | 0.00749 | 0.00936 | 0.0116
